Assays:
Assay in all cases: relative viability (nuclei count vs DMSO), 5 days (fraction); higher = more cells survive
Wnt-C59 + Dasatinib = compound: CC1=NC=CC(=C1)C2=CC=C(C=C2)CC(=O)NC3=CC=C(C=C3)C4=CN=CC=C4 [Wnt-C59] + Cc1nc(Nc2ncc(C(=O)Nc3c(C)cccc3Cl)s2)cc(N2CCN(CCO)CC2)n1 [Dasatinib] (partner 0.075 µM)
Outline: (§1)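 A single step with final 0.05% Triton X-100, 1% formaldehyde and 1 ug/ml Hoechst fixed the cells and stained nuclei 5 days after treatment. Lung cancer cell lines in 1536-well plates had been treated by pin tool the day after seeding with one drug alone or a fixed anchor-drug dose plus five library-drug doses (not always all listed) in √10 steps, and nuclei were counted on 4× images. Relative viability is the ratio of nuclei in treated wells to nuclei in vehicle wells, taken as the median of duplicate plates.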

Wnt-C59 + Palbociclib = compound: CC1=NC=CC(=C1)C2=CC=C(C=C2)CC(=O)NC3=CC=C(C=C3)C4=CN=CC=C4 [Wnt-C59] + CC(=O)c1c(C)c2cnc(Nc3ccc(N4CCNCC4)cn3)nc2n(C2CCCC2)c1=O [Palbociclib] (partner 0.5 µM)
Outline: as §1

Lapatinib + Olaparib = compound: CS(=O)(=O)CCNCc1ccc(-c2ccc3ncnc(Nc4ccc(OCc5cccc(F)c5)c(Cl)c4)c3c2)o1 [Lapatinib] + O=C(c1cc(Cc2n[nH]c(=O)c3ccccc23)ccc1F)N1CCN(C(=O)C2CC2)CC1 [Olaparib] (partner 8 µM)
Outline: as §1

Lapatinib + Decitabine = compound: CS(=O)(=O)CCNCc1ccc(-c2ccc3ncnc(Nc4ccc(OCc5cccc(F)c5)c(Cl)c4)c3c2)o1 [Lapatinib] + Nc1ncn([C@H]2C[C@H](O)[C@@H](CO)O2)c(=O)n1 [Decitabine] (partner 2 µM)
Outline: as §1

Cell Line: UMC-11
- relative viability (Wnt-C59 + Dasatinib; first compound 0.001 µM): 0.444
- relative viability (Wnt-C59 + Dasatinib; first compound 0.01 µM): 0.417
- relative viability (Wnt-C59 + Dasatinib; first compound 0.03162 µM): 0.525
- relative viability (Wnt-C59 + Dasatinib; first compound 0.1 µM): 0.468
- relative viability (Wnt-C59 + Palbociclib; first compound 0.001 µM): 0.337
- relative viability (Wnt-C59 + Palbociclib; first compound 0.01 µM): 0.319
- relative viability (Wnt-C59 + Palbociclib; first compound 0.03162 µM): 0.361
- relative viability (Wnt-C59 + Palbociclib; first compound 0.1 µM): 0.305
- relative viability (Lapatinib + Olaparib; first compound 0.02 µM): 0.299
- relative viability (Lapatinib + Olaparib; first compound 0.06325 µM): 0.342
- relative viability (Lapatinib + Olaparib; first compound 0.2 µM): 0.347
- relative viability (Lapatinib + Olaparib; first compound 0.6325 µM): 0.376
- relative viability (Lapatinib + Olaparib; first compound 2 µM): 0.327
- relative viability (Lapatinib + Decitabine; first compound 0.02 µM): 0.493
- relative viability (Lapatinib + Decitabine; first compound 0.06325 µM): 0.541
- relative viability (Lapatinib + Decitabine; first compound 0.2 µM): 0.627
- relative viability (Lapatinib + Decitabine; first compound 0.6325 µM): 0.518
- relative viability (Lapatinib + Decitabine; first compound 2 µM): 0.604

Reference: the supplement of paper PMC10307832
